This is an account of results in PubChem BioAssay AID1033 (Sanford-Burnham Center for Chemical Genomics, 2008).

Structures are written as SMILES. Calls of active or inactive are those of the source. The rule behind the calls is not given here.

In general, Kd refers to the free concentration of one partner at which half of the binding sites on the other are occupied at equilibrium, for simple one-to-one binding.

This assay deals with Chaperone protein DnaK (Escherichia coli (strain K12)) (UniProt P0A6Y8). Briefly: binders of DnaK substrate-binding domain, biophysical, NMR, chaperone (AID 1033). The following applies: Purified DnaK SBD, NMR ligand binding.
Chaperone protein DnaK (Escherichia coli (strain K12)), sequence (P0A6Y8 whole entry, looked up, the tested form may be a part): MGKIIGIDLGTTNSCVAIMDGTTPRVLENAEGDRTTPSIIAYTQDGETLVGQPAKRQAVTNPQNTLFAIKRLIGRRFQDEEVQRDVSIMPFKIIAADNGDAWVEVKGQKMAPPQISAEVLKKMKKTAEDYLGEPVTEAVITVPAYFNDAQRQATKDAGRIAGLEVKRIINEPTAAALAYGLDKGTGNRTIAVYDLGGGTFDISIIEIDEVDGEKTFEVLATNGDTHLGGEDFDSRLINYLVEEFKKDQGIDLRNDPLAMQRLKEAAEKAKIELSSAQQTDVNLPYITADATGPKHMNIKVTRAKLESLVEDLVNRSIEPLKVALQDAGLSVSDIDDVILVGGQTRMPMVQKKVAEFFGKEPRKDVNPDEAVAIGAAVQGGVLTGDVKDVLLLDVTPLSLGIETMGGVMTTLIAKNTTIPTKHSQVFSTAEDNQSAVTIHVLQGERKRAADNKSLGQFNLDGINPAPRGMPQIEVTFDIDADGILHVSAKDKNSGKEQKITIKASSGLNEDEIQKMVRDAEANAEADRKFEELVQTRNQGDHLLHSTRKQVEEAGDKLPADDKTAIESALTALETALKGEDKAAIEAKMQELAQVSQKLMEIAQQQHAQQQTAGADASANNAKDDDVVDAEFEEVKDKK
Consider `Cc1cc(C)n(-c2nncn2N)n1`, for which the Kd was > 4 mM (inactive).

Turning to `NC(=O)CSc1nnc(-c2cccnc2)o1`, the Kd is > 4 mM (inactive).

As to `CC1=NN(c2ccc(N)cc2)C(=O)C1`, the Kd was > 4 mM (inactive).

Turning to `c1ccc(CSc2ncccn2)cc1`, the Kd was > 4 mM (inactive).

As for `COC(=O)CSc1nnc(-c2ccc(C(=O)O)cc2)o1`, the Kd was > 4 mM (inactive).

Regarding `OC1CC2CCC1C2` (stereo not given), the Kd is > 4 mM (inactive).

Take `CC(=O)n1nc(-c2cccnc2)nc1N`: the Kd was > 4 mM (inactive).

As for `COc1cc2c3cc1Oc1cc(ccc1O)C[C@@H]1c4c(cc(OC)c(O)c4Oc4ccc(cc4)C[C@@H]3N(C)CC2)CC[N+]1(C)C`, the Kd was > 4 mM (inactive).

Consider `Cc1occc1C(=O)NCc1ccccn1`, for which the Kd is > 4 mM (inactive).

Regarding `COc1cc2c(cc1OC)C1Cc3ccc(OC)c(OC)c3CN1CC2` (stereo not given), the Kd is > 4 mM (inactive).

For `COc1c(O)cc2oc3cc(O)c(CC=C(C)C)c(O)c3c(=O)c2c1CC=C(C)C`, the Kd is > 4 mM (inactive).

On to `CC(=O)Oc1c(C)cc(O)c2ccccc12`, for which the Kd is > 4 mM (inactive).

Regarding `O=C(CSc1ccccc1)N1CCC2(CC1)OCCO2`, the Kd was > 4 mM (inactive).

As to `Nc1ccc(C(=O)NCC2CCCO2)cc1` (stereo not given), the Kd was > 4 mM (inactive).

Take `CCC1C(=O)OCC1Cc1cncn1C` (stereo not given): the Kd was > 4 mM (inactive).

As for `Cc1noc(C)c1C(=O)NC1=NCCS1`, the Kd is > 4 mM (inactive).

`CC(=O)NC12CC3CC(C)(C1)CC(NC(C)=O)(C3)C2`: the Kd is > 4 mM (inactive).

As for `CC1(C)C(=O)C=C[C@@]2(C)C1C[C@@H](O)[C@]1(C)C2CC[C@@]2(C)[C@H](c3ccoc3)OC(=O)[C@H]3O[C@]321` (stereo not given in full), the Kd was > 4 mM (inactive).

Regarding `CC(C)C(=O)NCC(c1ccco1)N1CCOCC1` (stereo not given), the Kd was > 4 mM (inactive).

Regarding `Cn1ncc2c(=O)n(CC(=O)c3ccccc3)cnc21`, the Kd was > 4 mM (inactive).

For the molecule `Oc1ccc(-c2n[nH]c(=S)n2Cc2ccco2)cc1`, the Kd is > 4 mM (inactive).

For the molecule `CC1=NN(c2ccc(C)cc2)C(=O)C1`, the Kd was > 4 mM (inactive).

In the case of `CC(=O)Nc1ccncc1NC(C)=O`, the Kd is > 4 mM (inactive).

Turning to `CNC(=O)C1CC(=O)N(c2ccc(O)cc2)C1` (stereo not given), the Kd was > 4 mM (inactive).

As to `CC(=O)Nc1ccc2c(C)cc(=O)[nH]c2c1`, the Kd was > 4 mM (inactive).

Turning to `CN1CCN(c2cc(=O)n(C)c(=O)[nH]2)CC1`, the Kd is > 4 mM (inactive).

Take `Nc1nc2n(c1C(=O)c1ccccc1)CCC2`: the Kd is > 4 mM (inactive).

`S=C(NCc1cccnc1)NC1CC1`: the Kd is > 4 mM (inactive).

Turning to `CCN(CC)c1nc2n(c(=O)n1)CCO2`, the Kd is > 4 mM (inactive).

With `NCCc1nc2ccccc2[nH]1`, the Kd is > 4 mM (inactive).

With `CC(=O)Nc1ccc(NC(C)=O)c(C(F)(F)F)c1`, the Kd is > 4 mM (inactive).

With `CC(=O)Nc1nc(-c2cccs2)cs1`, the Kd was > 4 mM (inactive).

On to `Cc1ccc2nc(NC(=O)CN3CCOCC3)sc2c1`, for which the Kd was > 4 mM (inactive).

`O=C(N1CCOCC1)N1CCN(c2ccccn2)CC1`: the Kd was > 4 mM (inactive).

On to `C[C@@H]1[C@H]2[C@H](O[C@@H]3O[C@H](CO)[C@@H](O)[C@H](O)[C@H]3O)OC=C(C(=O)O)[C@H]2C[C@@H]1O`, for which the Kd was > 4 mM (inactive).

Take `COc1cccc(/C=N/N=C2/NC(=O)CS2)c1`: the Kd was > 4 mM (inactive).

In the case of `Cc1ncoc1C(=O)Nc1ncc([N+](=O)[O-])s1`, the Kd is > 4 mM (inactive).

In the case of `NC(=O)CSc1ncnc2ccccc12`, the Kd is > 4 mM (inactive).

Regarding `CC(C)=CCCC1(C)C=Cc2c(O)c3c(c(CC=C(C)C)c2O1)OC12C(=CC4CC1C(C)(C)OC2(C/C=C(/C)C(=O)O)C4=O)C3=O` (stereo not given), the Kd is > 4 mM (inactive).

With `O=C(Nc1cccc(C(F)(F)F)c1)c1cccnc1`, the Kd was > 4 mM (inactive).

In the case of `NCCc1ccc(S(N)(=O)=O)cc1`, the Kd was > 4 mM (inactive).

For the molecule `O=c1[nH]cc(COCc2ccccc2)c(=O)[nH]1`, the Kd was > 4 mM (inactive).

As for `CC(=O)Nc1c(C#N)c(C(C)(C)C)cn1C`, the Kd was > 4 mM (inactive).

Take `CC1=NN2C(=N)CC(=O)N=C2S1`: the Kd is > 4 mM (inactive).

`CCNC(CC(=O)Nc1cccc([N+](=O)[O-])c1)C(=O)O` (stereo not given): the Kd was > 4 mM (inactive).

For the molecule `Nc1nc(=S)n2c(n1)oc1ccccc12`, the Kd is > 4 mM (inactive).

For `O=C(O)CC1Sc2ccccc2NC1=O` (stereo not given), the Kd is > 4 mM (inactive).

For the molecule `O=C(Nc1ccccn1)c1cc(-n2cnnc2)ccc1Cl`, the Kd was > 4 mM (inactive).

With `O=C(NN=C1CCCC1)c1ccncc1`, the Kd was > 4 mM (inactive).

`O=c1c(-c2ccc(O)cc2)coc2cc(O)ccc12`: the Kd was > 4 mM (inactive).

For the molecule `O=c1ccn(Cc2ccccc2)c(=O)[nH]1`, the Kd was > 4 mM (inactive).

Regarding `Nc1scc[n+]1CC(=O)[O-]`, the Kd was > 4 mM (inactive).

`Nc1n[nH]c(=S)n1-c1ccccc1`: the Kd is > 4 mM (inactive).

Take `CNC(=S)Nc1ccc(OC)cc1C`: the Kd is > 4 mM (inactive).

With `Cc1nc2ccccc2c(=O)n1/N=C/c1ccco1`, the Kd is > 4 mM (inactive).

As to `Cc1ccc2c(c1)CCCN2C(=O)c1c(C)noc1C`, the Kd is > 4 mM (inactive).

As to `O=C(Nc1ccc(N2CCOCC2)cc1)C1CC1`, the Kd is > 4 mM (inactive).

For the molecule `O=C(CSc1ccnc(=O)[nH]1)NCc1ccco1`, the Kd is > 4 mM (inactive).

As for `Nc1ncnc2c1ncn2C1C[C@H](O)[C@@H](CO)O1` (stereo not given in full), the Kd is > 4 mM (inactive).

In the case of `O=C1Nc2ccccc2C1C1(O)C(=O)Nc2ccc(F)cc21` (stereo not given), the Kd is > 4 mM (inactive).

With `O=C1C=CC2=C3c4cc(O)c(O)cc4CC3(O)COC2=C1O` (stereo not given), the Kd is > 4 mM (inactive).

With `C/C(N)=C/C(=O)N1CCCCC1`, the Kd was > 4 mM (inactive).

As to `Cn1cnnc1SCC(=O)Nc1ccccc1`, the Kd was > 4 mM (inactive).

Consider `O=C(Nc1cccnc1)c1cnn2cccnc12`, for which the Kd was > 4 mM (inactive).

For the molecule `O=C(O)CSc1nc2ccccc2c(=O)[nH]1`, the Kd is > 4 mM (inactive).

On to `O=C(NC(=S)NN1CCOCC1)c1cccs1`, for which the Kd was > 4 mM (inactive).

For `COC(=O)/C(=C1\OC(=O)C(c2ccccc2)C1=O)c1ccccc1` (stereo not given), the Kd was > 4 mM (inactive).

Regarding `Cc1cc(O)cc(=O)o1`, the Kd was > 4 mM (inactive).

For the molecule `CCCc1nc2ccccc2c2nc(N)nn12`, the Kd is > 4 mM (inactive).

For the molecule `Cc1sc2nc3n(c(=O)c2c1C)CCCS3`, the Kd was > 4 mM (inactive).

For the molecule `c1n[nH]cc1-c1cn[nH]c1`, the Kd is > 4 mM (inactive).

`CC(=O)N1CCn2c3c(c(=O)c4cc(C)ccc42)CCC31` (stereo not given): the Kd was > 4 mM (inactive).

Take `Cc1cc(C)n(-c2nc(N)cc(=O)[nH]2)n1`: the Kd was > 4 mM (inactive).

`Cc1nnc(C)n1/N=C/c1cccs1`: the Kd was > 4 mM (inactive).

On to `O=C1CNc2cc(C(=O)O)ccc2N1`, for which the Kd is > 4 mM (inactive).
